Measurements reported in US11254668B2, “Pyrazolo[1,5-A]pyrazin-4-yl and related derivatives” (Pfizer Inc., priority 2017, dated 2022).
Like-named read-outs stand apart in the source and are kept apart here.

Key:
Assay type in all cases: biochemical
[1] = target: TYK2 (Homo sapiens (Human), UniProt P29597); assay: JAK Caliper Enzyme Assay at 1 mM ATP, TYK2
Summary of the method: (§1)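 Human recombinant kinase domain + fluorescently labelled synthetic peptide, 1 mM ATP, RT; enzyme level/time set for 20–30% phosphorylation. EDTA stop. LabChip separation, peak-height % conversion, % effect vs plate controls.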

[2] = target: JAK1 (Homo sapiens (Human), UniProt P23458); assay: JAK Caliper Enzyme Assay at 1 mM ATP, JAK1
Sequence of JAK1 (P23458 875-1153): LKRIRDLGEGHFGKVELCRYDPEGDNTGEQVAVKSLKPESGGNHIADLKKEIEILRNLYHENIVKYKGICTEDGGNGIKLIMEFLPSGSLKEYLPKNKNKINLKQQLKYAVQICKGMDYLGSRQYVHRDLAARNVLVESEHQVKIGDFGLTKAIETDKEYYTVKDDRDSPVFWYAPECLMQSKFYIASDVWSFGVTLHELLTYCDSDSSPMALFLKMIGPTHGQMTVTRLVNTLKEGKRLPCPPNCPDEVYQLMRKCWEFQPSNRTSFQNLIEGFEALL
Summary of the method: (§2)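 Recombinant human kinase domains phosphorylate a fluorescent synthetic peptide at 1 mM ATP, room temperature, with enzyme and time tuned for 20-30% conversion; EDTA-stopped. Product/substrate separated by microfluidic mobility shift; percent effect versus DMSO and positive controls fitted to IC50 (nM).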

[3] = target: JAK2 (Homo sapiens (Human), UniProt O60674); assay: JAK Caliper Enzyme Assay at 1 mM ATP, JAK2
Sequence of JAK2 (O60674 849-1124): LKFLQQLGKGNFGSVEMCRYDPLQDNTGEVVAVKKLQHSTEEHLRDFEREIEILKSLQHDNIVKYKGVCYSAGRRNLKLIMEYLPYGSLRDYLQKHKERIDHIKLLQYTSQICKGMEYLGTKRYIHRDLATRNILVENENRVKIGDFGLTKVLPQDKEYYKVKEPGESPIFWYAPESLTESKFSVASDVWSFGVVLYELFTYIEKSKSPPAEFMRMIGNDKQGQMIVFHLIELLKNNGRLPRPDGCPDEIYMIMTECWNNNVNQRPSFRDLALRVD
Summary of the method: as §1

[4] = target: JAK3 (Homo sapiens (Human), UniProt P52333); assay: JAK Caliper Enzyme Assay at 1 mM ATP, JAK3
Sequence of JAK3 (P52333 822-1111): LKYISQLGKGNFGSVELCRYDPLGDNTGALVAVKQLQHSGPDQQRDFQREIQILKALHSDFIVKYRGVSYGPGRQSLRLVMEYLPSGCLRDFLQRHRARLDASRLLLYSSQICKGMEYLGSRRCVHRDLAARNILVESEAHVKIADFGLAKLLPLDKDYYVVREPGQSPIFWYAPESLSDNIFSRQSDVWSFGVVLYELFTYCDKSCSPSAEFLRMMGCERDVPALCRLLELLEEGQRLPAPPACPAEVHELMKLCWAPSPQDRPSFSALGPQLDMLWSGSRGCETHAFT
Summary of the method: as §2

Sequence of TYK2 (P29597 897-1176): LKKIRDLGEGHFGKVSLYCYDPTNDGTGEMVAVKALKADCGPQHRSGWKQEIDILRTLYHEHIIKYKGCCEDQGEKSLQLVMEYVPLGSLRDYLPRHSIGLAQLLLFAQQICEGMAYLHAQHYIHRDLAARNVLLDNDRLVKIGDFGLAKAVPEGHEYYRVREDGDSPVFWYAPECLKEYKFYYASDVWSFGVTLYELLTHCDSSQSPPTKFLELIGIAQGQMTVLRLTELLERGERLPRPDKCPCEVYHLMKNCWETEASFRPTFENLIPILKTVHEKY

| SMILES | IC50 [1] | IC50 [2] | IC50 [3] | IC50 [4] | IC50 ([1]; JAK Caliper enzyme assay) | IC50 ([2]; JAK Caliper enzyme assay) | IC50 ([3]; JAK Caliper enzyme assay) | IC50 ([4]; JAK Caliper enzyme assay) |
| --- | --- | --- | --- | --- | --- | --- | --- | --- |
| CN1CCC(n2cc(-c3cc4ncccc4c(-c4ccn(C5(CC#N)CN(CC(F)(F)F)C5)n4)n3)cn2)CC1 [Example 117, [3-(3-{7-[1-(1-methylpiperidin-4-yl)-1H-pyrazol-4-yl]-1,6-naphthyridin-5-yl}-1H-pyrazol-1-yl)-1-(2,2,2-trifluoroethyl)azetidin-3-yl]acetonitrile] | 88 nM | 1060 nM | 64 nM | 6960 nM | – | – | – | – |
| N#CC[C@]1(n2ncc(-c3cc(-c4cc(N)ncn4)cc4ncccc34)n2)C[C@@H](C#N)C1 [Example 395, cis-3-{4-[7-(6-aminopyrimidin-4-yl)quinolin-5-yl]-2H-1,2,3-triazol-2-yl}-3-(cyanomethyl)cyclobutanecarbonitrile] | – | – | – | – | 78 nM | 6350 nM | 774 nM | > 10000 nM |
| Cc1cc(-c2cc3ncccc3c(-c3ccn([C@]4(CC#N)C[C@@](C)(C#N)C4)n3)n2)n[nH]1 [Example 46, trans-3-(cyanomethyl)-1-methyl-3-{3-[7-(5-methyl-1H-pyrazol-3-yl)-1,6-naphthyridin-5-yl]-1H-pyrazol-1-yl}cyclobutanecarbonitrile] | 867 nM | 9680 nM | 2770 nM | > 10000 nM | – | – | – | – |
| CS(=O)(=O)N1CC(CC#N)(n2ccc(-c3nc(-c4cncnc4)cc4ncccc34)n2)C1 [Example 235, [1-(methylsulfonyl)-3-{3-[7-(pyrimidin-5-yl)-1,6-naphthyridin-5-yl]-1H-pyrazol-1-yl}azetidin-3-yl]acetonitrile] | 5510 nM | > 10000 nM | > 10000 nM | > 10000 nM | – | – | – | – |
| Cn1cc(-c2cc(-c3ccn(C4(CC#N)CN(CC(F)(F)F)C4)n3)c3cccnc3c2)cn1 [Example 285, [3-{3-[7-(1-methyl-1H-pyrazol-4-yl)quinolin-5-yl]-1H-pyrazol-1-yl}-1-(2,2,2-trifluoroethyl)azetidin-3-yl]acetonitrile] | 342 nM | > 10000 nM | 2950 nM | > 10000 nM | – | – | – | – |
| N#CCC1(n2ccc(-c3nc(Cl)cc4ncccc34)n2)CN(CC(F)(F)F)C1 [Example 14, {3-[3-(7-chloro-1,6-naphthyridin-5-yl)-1H-pyrazol-1-yl]-1-(2,2,2-trifluoroethyl)azetidin-3-yl}acetonitrile] | 1470 nM | 8960 nM | > 10000 nM | > 10000 nM | – | – | – | – |
| CS(=O)(=O)N1CC(CC#N)(n2ccc(-c3nc(-c4ccn(C5COC5)n4)cc4ncccc34)n2)C1 [Example 56, [1-(methylsulfonyl)-3-(3-{7-[1-(oxetan-3-yl)-1H-pyrazol-3-yl]-1,6-naphthyridin-5-yl}-1H-pyrazol-1-yl)azetidin-3-yl]acetonitrile] | 225 nM | > 10000 nM | 1480 nM | > 10000 nM | – | – | – | – |
| CN1C(=O)COc2ccc(-c3cc(-c4cnn([C@]5(CC#N)C[C@@H](C#N)C5)n4)c4cccnc4c3)nc21 [Example 426, trans-3-(cyanomethyl)-3-{4-[7-(4-methyl-3-oxo-3,4-dihydro-2H-pyrido[3,2-b][1,4]oxazin-6-yl)quinolin-5-yl]-2H-1,2,3-triazol-2-yl}cyclobutanecarbonitrile] | – | – | – | – | 24 nM | 1000 nM | 50 nM | > 10000 nM |
| CS(=O)(=O)N1CC(CC#N)(n2ccc(-c3nc(-c4ccc5nccn5c4)cc4ncccc34)n2)C1 [Example 162, [3-{3-[7-(imidazo[1,2-a]pyridin-6-yl)-1,6-naphthyridin-5-yl]-1H-pyrazol-1-yl}-1-(methylsulfonyl)azetidin-3-yl]acetonitrile] | 68 nM | 788 nM | 546 nM | > 10000 nM | – | – | – | – |
| COc1nc(-c2cc(-c3cnn([C@]4(CC#N)C[C@H](C#N)C4)n3)c3cccnc3c2)ccc1N [Example 383, cis-3-{4-[7-(5-amino-6-methoxypyridin-2-yl)quinolin-5-yl]-2H-1,2,3-triazol-2-yl}-3-(cyanomethyl)cyclobutanecarbonitrile] | – | – | – | – | 7 nM | 59 nM | 35 nM | 4250 nM |
| CCN1CC(CC#N)(n2ccc(-c3nc(-c4cc(CO)[nH]n4)cc4ncccc34)n2)C1 [Example 47, [1-ethyl-3-(3-{7-[5-(hydroxymethyl)-1H-pyrazol-3-yl]-1,6-naphthyridin-5-yl}-1H-pyrazol-1-yl)azetidin-3-yl]acetonitrile] | 254 nM | 7720 nM | 1940 nM | > 10000 nM | – | – | – | – |
| COc1nc(-c2cc(-c3cnn([C@]4(CC#N)C[C@@H](C#N)C4)n3)c3cccnc3c2)ccc1N [Example 384, trans-3-{4-[7-(5-amino-6-methontpyridin-2-yl)quinolin-5-yl]-2H-1,2,3-triazol-2-yl}-3-(cyanomethyl)cyclobutanecarbonitrile] | – | – | – | – | 33 nM | 769 nM | 256 nM | > 10000 nM |

The remaining compounds from weak to strong by IC50 [1], led by results:

| IC50 [1] | IC50 [2] | IC50 [3] | IC50 [4] | IC50 ([1]; JAK Caliper enzyme assay) | IC50 ([2]; JAK Caliper enzyme assay) | IC50 ([3]; JAK Caliper enzyme assay) | IC50 ([4]; JAK Caliper enzyme assay) | SMILES |
| --- | --- | --- | --- | --- | --- | --- | --- | --- |
| 35 nM | 404 nM | 368 nM | > 10000 nM | – | – | – | – | CS(=O)(=O)N1CC(CC#N)(n2ccc(-c3nc(-c4cnn5ccccc45)cc4ncccc34)n2)C1 [Example 161, [1-(methylsulfonyl)-3-{3-[7-(pyrazolo[1,5-a]pyridin-3-yl)-1,6-naphthyridin-5-yl]-1H-pyrazol-1-yl}azetidin-3-yl]acetonitrile] |
| 32 nM | 269 nM | 126 nM | > 10000 nM | – | – | – | – | Cc1n[nH]cc1-c1cc2ncccc2c(-c2ccn([C@]3(CC#N)C[C@H](C#N)C3)n2)n1 [Example 90, cis-3-(cyanomethyl)-3-{3-[7-(3-methyl-1H-pyrazol-4-yl)-1,6-naphthyridin-5-yl]-1H-pyrazol-1-yl}cyclobutanecarbonitrile] |
| 30 nM | 1420 nM | 144 nM | 9930 nM | – | – | – | – | Cn1cc(-c2cc(-c3cnn([C@]4(CC#N)C[C@@H](C#N)C4)n3)c3cccnc3c2)cn1 [Example 324, trans-3-(cyanomethyl)-3-{4-[7-(1-methyl-1H-pyrazol-4-yl)quinolin-5-yl]-2H-1,2,3-triazol-2-yl}cyclobutanecarbonitrile] |
| 22 nM | > 10000 nM | 241 nM | > 10000 nM | – | – | – | – | CS(=O)(=O)N1CC(CC#N)(n2ccc(-c3nc(-c4cnc5[nH]c(=O)[nH]c5c4)cc4ncccc34)n2)C1 [Example 169, [1-(methylsulfonyl)-3-{3-[7-(2-oxo-2,3-dihydro-1H-imidazo[4,5-b]pyridin-6-yl)-1,6-naphthyridin-5-yl]-1H-pyrazol-1-yl}azetidin-3-yl]acetonitrile] |
| 13 nM | 38 nM | 20 nM | 2650 nM | – | – | – | – | Cc1cc(-c2nc(-c3cn[nH]c3N)cc3ncccc23)nn1[C@]1(CC#N)C[C@@H](C#N)C1 [Example 275, trans-3-{3-[7-(5-amino-1H-pyrazol-4-yl)-1,6-naphthyridin-5-yl]-5-methyl-1H-pyrazol-1-yl}-3-(cyanomethyl)cyclobutanecarbonitrile] |
| 10 nM | 280 nM | 252 nM | > 10000 nM | – | – | – | – | N#CCC1(n2ncc(-c3cc(-c4cc[nH]n4)cc4ncccc34)n2)CN(S(=O)(=O)C2CC2)C1 [Example 299, [1-(cyclopropylsulfonyl)-3-{4-[7-(1H-pyrazol-3-yl)quinolin-5-yl]-2H-1,2,3-triazol-2-yl}azetidin-3-yl]acetonitrile] |
